pKi: −log10 of the molar value.
Tests used:
Rat SERT = target: T1, Rat SERT (Rattus norvegicus, UniProt P31652); experiment: Rat brain SERT binding ([3H]-citalopram displacement); conditions: rat brain membranes without cerebellum, 0.6 nM [3H]-citalopram, 60 min at 25° C.; read-out: Rat SERT Ki
T1 construct: A rat brain without cerebellum (Zivic Laboratories, Inc.—Pittsburgh, Pa.) was homogenized; tissue Zivic Laboratories, Inc; host or cells: rat brain without cerebellum, membranes
Protocol: The supernatant was removed and re-centrifuged at 15,000 rpm for 30 min. […] Membranes were incubated with 0.6 nM [^3H]-Citalopram plus/minus test compounds for 60 min at 25° C. and harvested by rapid filtration over GF/C glass fiber filters (pretreated with 0.3% polyethylenimine) followed by four washes with ice-cold buffer.

human H3 receptor = target: T2, human H3 receptor (Homo sapiens, UniProt Q9Y5N1); experiment: H3 receptor binding (N-[3H]-α-methylhistamine displacement); conditions: membranes of SK-N-MC cells expressing cloned human H3 receptor, 0.8 nM N-[3H]-α-methylhistamine, 60 min at 25° C.
T2 construct: expressed in transfected cells
T2 sequence (Q9Y5N1 whole entry): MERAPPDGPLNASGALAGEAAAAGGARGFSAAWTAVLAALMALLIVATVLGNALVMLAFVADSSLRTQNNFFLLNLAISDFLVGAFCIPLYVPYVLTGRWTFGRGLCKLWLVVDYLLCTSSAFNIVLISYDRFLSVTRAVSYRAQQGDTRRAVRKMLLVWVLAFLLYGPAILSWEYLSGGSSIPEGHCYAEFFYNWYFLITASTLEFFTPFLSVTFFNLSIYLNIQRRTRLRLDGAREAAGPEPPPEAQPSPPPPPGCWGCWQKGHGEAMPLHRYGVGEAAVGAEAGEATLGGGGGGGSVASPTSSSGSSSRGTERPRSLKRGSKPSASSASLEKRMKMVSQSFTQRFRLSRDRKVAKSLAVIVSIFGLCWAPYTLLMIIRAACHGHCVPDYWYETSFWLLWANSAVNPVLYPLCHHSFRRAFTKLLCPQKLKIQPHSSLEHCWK

T1 sequence (P31652 whole entry): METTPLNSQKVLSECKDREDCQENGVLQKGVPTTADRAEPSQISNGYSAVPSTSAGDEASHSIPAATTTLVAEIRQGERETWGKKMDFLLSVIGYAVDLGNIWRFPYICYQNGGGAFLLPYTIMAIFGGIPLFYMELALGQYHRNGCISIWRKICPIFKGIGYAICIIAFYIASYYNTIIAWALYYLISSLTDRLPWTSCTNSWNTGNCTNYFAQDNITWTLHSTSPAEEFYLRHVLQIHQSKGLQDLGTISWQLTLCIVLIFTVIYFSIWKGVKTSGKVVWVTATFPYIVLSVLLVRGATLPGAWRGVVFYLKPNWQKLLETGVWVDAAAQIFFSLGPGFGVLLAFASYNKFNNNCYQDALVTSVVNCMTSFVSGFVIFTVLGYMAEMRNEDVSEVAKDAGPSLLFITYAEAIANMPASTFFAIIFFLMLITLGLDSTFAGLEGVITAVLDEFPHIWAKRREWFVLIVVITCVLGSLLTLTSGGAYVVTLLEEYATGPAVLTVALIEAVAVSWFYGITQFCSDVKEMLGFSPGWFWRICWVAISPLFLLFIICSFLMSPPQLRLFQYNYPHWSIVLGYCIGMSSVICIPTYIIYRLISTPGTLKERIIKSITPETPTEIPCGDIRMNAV

Compound | pKi (Rat SERT) | pKi (human H3 receptor)
CCCN1Cc2cc(OCCCN3CCCCC3)ccc2C(c2ccc(OC)cc2)C1 (centres unmarked) [Example 67, 4-(4-Methoxy-phenyl)-7-(3-piperidin-1-yl-propoxy)-2-propyl-1,2,3,4-tetrahydro-isoquinoline] | 6.98 | 9.30
COCCN1CCN(CCCOc2ccc3c(c2)CN(C)CC3c2ccc(OC)cc2)CC1 (centres unmarked) [Example 209, 7-{3-[4-(2-Methoxy-ethyl)-piperazin-1-yl]-propoxy}-4-(4-methoxy-phenyl)-2-methyl-1,2,3,4-tetrahydro-isoquinoline] | 7.92 | 6.75
CSc1ccc(C2CN(C)Cc3cc(OC4CCN(CCC(F)(F)F)CC4)ccc32)cc1 (centres unmarked) [Example 244, 2-Methyl-4-(4-methylsulfanyl-phenyl)-7-[1-(3,3,3-trifluoro-propyl)-piperidin-4-yloxy]-1,2,3,4-tetrahydro-isoquinoline] | 8.15 | 6.89
CCN1CCC(COc2ccc3c(c2)CN(C)CC3c2cccc(OC)c2)CC1 (centres unmarked) [Example 95, 7-(1-Ethyl-piperidin-4-ylmethoxy)-4-(3-methoxy-phenyl)-2-methyl-1,2,3,4-tetrahydro-isoquinoline] | 7.82 | 8.70
COc1ccc(C2CN(C)Cc3cc(OCCCN4CCN(c5ccc(C(F)(F)F)cc5)CC4)ccc32)cc1 (centres unmarked) [Example 205, 4-(4-Methoxy-phenyl)-2-methyl-7-{3-[4-(4-trifluoromethyl-phenyl)-piperazin-1-yl]-propoxy}-1,2,3,4-tetrahydro-isoquinoline] | 7.36 | 5.70
COc1ccc(C2CN(C)Cc3cc(OCCCN4CCC(F)CC4)ccc32)cn1 (centres unmarked) [Example 193, 7-[3-(4-Fluoro-piperidin-1-yl)-propoxy]-4-(6-methoxy-pyridin-3-yl)-2-methyl-1,2,3,4-tetrahydro-isoquinoline] | 8.30 | 8.52
COc1ccc(C2CN(C)Cc3cc(OCC4CCNCC4)ccc32)cc1F (centres unmarked) [Example 81, 4-(3-Fluoro-4-methoxy-phenyl)-2-methyl-7-(piperidin-4-ylmethoxy)-1,2,3,4-tetrahydro-isoquinoline] | 9.00 | 7.15
COCCNCCCOc1ccc2c(c1)CN(C)CC2c1ccc(OC)cc1 (centres unmarked) [Example 225, (2-Methoxy-ethyl)-{3-[4-(4-methoxy-phenyl)-2-methyl-1,2,3,4-tetrahydro-isoquinolin-7-yloxy]-propyl}-amine] | 9.00 | 7.34
COc1ccc(C2CN(C)Cc3cc(OCC4CCN(C(=O)C(F)(F)F)CC4)ccc32)cc1 (centres unmarked) [Example 122, 2,2,2-Trifluoro-1-{4-[4-(4-methoxy-phenyl)-2-methyl-1,2,3,4-tetrahydro-isoquinolin-7-yloxymethyl]-piperidin-1-yl}-ethanone] | 7.59 | 6.43
CSc1ccc(C2CN(C)Cc3cc(OCCCN4CCC(F)CC4)ccc32)cn1 (centres unmarked) [Example 187, 7-[3-(4-Fluoro-piperidin-1-yl)-propoxy]-2-methyl-4-(6-methylsulfanyl-pyridin-3-yl)-1,2,3,4-tetrahydro-isoquinoline] | 8.52 | 8.30
COc1ccc(C2CN(C)Cc3cc(OCCCN4CCN(Cc5cccs5)CC4)ccc32)cc1 (centres unmarked) [Example 201, 4-(4-Methoxy-phenyl)-2-methyl-7-[3-(4-thiophen-2-ylmethyl-piperazin-1-yl)-propoxy]-1,2,3,4-tetrahydro-isoquinoline] | 8.40 | 6.87
CN1Cc2cc(OCCCN3CCC(F)CC3)ccc2C(c2cc(Cl)cc(Cl)c2)C1 (centres unmarked) [Example 56, 4-(3,5-Dichloro-phenyl)-7-[3-(4-fluoro-piperidin-1-yl)-propoxy]-2-methyl-1,2,3,4-tetrahydro-isoquinoline] | 7.38 | 7.70
COc1ccc(C2CN(C)Cc3cc(OCC4CCN(C5CCC5)CC4)ccc32)cc1F (centres unmarked) [Example 111, 7-(1-Cyclobutyl-piperidin-4-ylmethoxy)-4-(3-fluoro-4-methoxy-phenyl)-2-methyl-1,2,3,4-tetrahydro-isoquinoline] | 8.40 | 8.10
CN1Cc2cc(OCCCN3CCC(F)CC3)ccc2C(c2ccc(Br)nc2)C1 (centres unmarked) [Example 186, 4-(6-Bromo-pyridin-3-yl)-7-[3-(4-fluoro-piperidin-1-yl)-propoxy]-2-methyl-1,2,3,4-tetrahydro-isoquinoline] | 8.00 | 8.22
CN1Cc2cc(OCCCN3CCC(F)CC3)ccc2C(c2ccc(-n3cccn3)nc2)C1 (centres unmarked) [Example 194, 7-[3-(4-Fluoro-piperidin-1-yl)-propoxy]-2-methyl-4-(6-pyrazol-1-yl-pyridin-3-yl)-1,2,3,4-tetrahydro-isoquinoline] | 8.15 | 9.00
CCCN1CCC(COc2ccc3c(c2)CN(C)CC3c2ccc(OC)cc2F)CC1 (centres unmarked) [Example 114, 4-(2-Fluoro-4-methoxy-phenyl)-2-methyl-7-(1-propyl-piperidin-4-ylmethoxy)-1,2,3,4-tetrahydro-isoquinoline] | 8.05 | 8.40

Compound | pKi (Rat SERT) | pKi (human H3 receptor)
CSc1ccc(C2CN(C)Cc3cc(OC4CCN(CC#N)CC4)ccc32)cc1 (centres unmarked) [Example 245, {4-[2-Methyl-4-(4-methylsulfanyl-phenyl)-1,2,3,4-tetrahydro-isoquinolin-7-yloxy]-piperidin-1-yl}-acetonitrile] | 8.15 | 6.47
COc1ccc(C2CN(C)Cc3cc(OCCCN(C)C(C)C)ccc32)cc1 (centres unmarked) [Example 233, Isopropyl-{3-[4-(4-methoxy-phenyl)-2-methyl-1,2,3,4-tetrahydro-isoquinolin-7-yloxy]-propyl}-methyl-amine] | 8.52 | 8.40
COc1ccc(C2CN(CCCO)Cc3cc(OCCCN4CCCCC4)ccc32)cc1 (centres unmarked) [Example 70, 3-[4-(4-Methoxy-phenyl)-7-(3-piperidin-1-yl-propoxy)-3,4-dihydro-1H-isoquinolin-2-yl]-propan-1-ol] | 7.31 | 9.00
CCOC(=O)C1CCN(CCCOc2ccc3c(c2)CN(C)CC3c2ccc(OC)cc2)CC1 (centres unmarked) [Example 33, 1-{3-[4-(4-Methoxy-phenyl)-2-methyl-1,2,3,4-tetrahydro-isoquinolin-7-yloxy]-propyl}-piperidine-4-carboxylic acid ethyl ester] | 8.30 | 6.76
COc1ccc(C2CN(C)Cc3cc(OC4CCNCC4)ccc32)c(F)c1 (centres unmarked) [Example 150, 4-(2-Fluoro-4-methoxy-phenyl)-2-methyl-7-(piperidin-4-yloxy)-1,2,3,4-tetrahydro-isoquinoline] | 8.15 | 6.76
CSc1ccc(C2CN(C)Cc3c2ccc(OCCCN2CCOCC2)c3C)cc1 (centres unmarked) [Example 172, 2,8-Dimethyl-4-(4-methylsulfanyl-phenyl)-7-(3-morpholin-4-yl-propoxy)-1,2,3,4-tetrahydro-isoquinoline] | 7.85 | 7.05
COc1ccc(C2CN(C)Cc3cc(OCCCNC4CC4)ccc32)cc1 (centres unmarked) [Example 229, Cyclopropyl-{3-[4-(4-methoxy-phenyl)-2-methyl-1,2,3,4-tetrahydro-isoquinolin-7-yloxy]-propyl}-amine] | 8.70 | 7.74
C[C@H]1COCCN1CCCOc1ccc2c(c1)CN(C)CC2c1ccc(N2CCOCC2)cc1 (stereo partly drawn) [Example 133, 2-Methyl-7-[3-(3S-methyl-morpholin-4-yl)-propoxy]-4-(4-morpholin-4-yl-phenyl)-1,2,3,4-tetrahydro-isoquinoline] | 7.30 | 8.70
COc1ccc(C2CN(C)Cc3cc(OCCCN4CCN(CC5CCCO5)CC4)ccc32)cc1 (centres unmarked) [Example 210, 4-(4-Methoxy-phenyl)-2-methyl-7-{3-[4-(tetrahydro-furan-2-ylmethyl)-piperazin-1-yl]-propoxy}-1,2,3,4-tetrahydro-isoquinoline] | 8.00 | 7.00
COc1cccc(C2CN(C)Cc3cc(OCC4CCN(C5CCCC5)CC4)ccc32)c1 (centres unmarked) [Example 94, 7-(1-Cyclopentyl-piperidin-4-ylmethoxy)-4-(3-methoxy-phenyl)-2-methyl-1,2,3,4-tetrahydro-isoquinoline] | 7.82 | 8.40
COc1ccc(C2CN(C)Cc3cc(OCCCN4CCOCC4)c(C)cc32)cc1 (centres unmarked) [Example 266, 4-(4-Methoxy-phenyl)-2,6-dimethyl-7-(3-morpholin-4-yl-propoxy)-1,2,3,4-tetrahydro-isoquinoline] | 7.51 | 7.85
CN1Cc2cc(OCCCN3CCC(F)CC3)ccc2C(c2ccc(-n3ccnc3)nc2)C1 (centres unmarked) [Example 192, 7-[3-(4-Fluoro-piperidin-1-yl)-propoxy]-4-(6-imidazol-1-yl-pyridin-3-yl)-2-methyl-1,2,3,4-tetrahydro-isoquinoline] | 8.05 | 8.52
C#Cc1ccc(C2CN(C)Cc3cc(OCCCN4CCC(F)CC4)ccc32)cn1 (centres unmarked) [Example 190, 4-(6-Ethynyl-pyridin-3-yl)-7-[3-(4-fluoro-piperidin-1-yl)-propoxy]-2-methyl-1,2,3,4-tetrahydro-isoquinoline] | 6.92 | 7.54
CCCN1CCC(Oc2ccc3c(c2)CN(C)CC3c2cccc(OC)c2)CC1 (centres unmarked) [Example 102, 4-(3-Methoxy-phenyl)-2-methyl-7-(1-propyl-piperidin-4-yloxy)-1,2,3,4-tetrahydro-isoquinoline] | 7.89 | 8.70
COc1ccc(C2CN(C)Cc3cc(OCC4CCN(C5CCC5)CC4)ccc32)cc1Cl (centres unmarked) [Example 106, 4-(3-Chloro-4-methoxy-phenyl)-7-(1-cyclobutyl-piperidin-4-ylmethoxy)-2-methyl-1,2,3,4-tetrahydro-isoquinoline] | 7.60 | 8.22
